# Experimental data reported in the supplement of paper PMC7285287.
# Counter-ions that a name gives are not always drawn. ± gives the standard deviation of the averaged measurements.
# Tested on: Candida albicans SNY425 biofilm
# Test: biofilm OD600 relative to DMSO control (fraction of DMSO control); higher = more biofilm (less inhibition)
# Protocol: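 C. albicans SNY425 biofilm optical density assays (OD600 of the adhered biofilm after media removal) in RPMI-MOPS pH 7.0 at 37 °C with shaking. Groups of 4 to 8 wells per compound are averaged and normalised to the average of DMSO loading control wells. Adherence inhibition was tested at 10 and 40 µM, sustained inhibition and disruption at 40 µM, and the MBIC series at 200 to 0.78 µM.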
# [1] = 10 µM, assay detail: adherence inhibition, 96-well, compound during 90 min adherence only
# [2] = 40 µM, assay detail: adherence inhibition, 96-well, compound during 90 min adherence only
# [3] = 40 µM, assay detail: disruption, 384-well, compound added to 24 h mature biofilm for further 24 h
# [4] = 40 µM, assay detail: sustained inhibition, 384-well, compound during adherence and 24 h growth
# [5] = 0.78 µM, assay detail: sustained inhibition (MBIC series), 384-well, compound during adherence and 24 h growth
# [6] = 3.125 µM, assay detail: sustained inhibition (MBIC series), 384-well, compound during adherence and 24 h growth
# [7] = 12.5 µM, assay detail: sustained inhibition (MBIC series), 384-well, compound during adherence and 24 h growth
# [8] = 50 µM, assay detail: sustained inhibition (MBIC series), 384-well, compound during adherence and 24 h growth
# [9] = 200 µM, assay detail: sustained inhibition (MBIC series), 384-well, compound during adherence and 24 h growth
smiles,measurement,setting,value
Oc1ncnc2[nH]ncc12 [Allopurinol],biofilm OD600,[1],0.938
same,biofilm OD600,[2],0.887
same,biofilm OD600,[3],1.02 ± 0.07
same,biofilm OD600,[4],0.982 ± 0.038
CNCCCC1c2ccccc2C=Cc2ccccc21 [Protriptyline hydrochloride],biofilm OD600,[1],1.05
same,biofilm OD600,[2],0.899
same,biofilm OD600,[3],1.01 ± 0.012
same,biofilm OD600,[4],1.02 ± 0.022
Nc1ccc(S(=O)(=O)Nc2ccnn2-c2ccccc2)cc1 [Sulfaphenazole],biofilm OD600,[1],0.962
same,biofilm OD600,[2],0.934
same,biofilm OD600,[3],1.01 ± 0.017
same,biofilm OD600,[4],1.01 ± 0.03
Cc1cnc(C(=O)O)c[n+]1[O-] [acipimox],biofilm OD600,[1],0.823
same,biofilm OD600,[2],0.56
same,biofilm OD600,[3],0.997 ± 0.034
same,biofilm OD600,[4],0.992 ± 0.029
C[C@@H]1CC[C@H]2[C@@H](C)C(=O)O[C@@H]3O[C@@]4(C)CC[C@@H]1[C@]32OO4 [artemisinin],biofilm OD600,[5],1.09
same,biofilm OD600,[6],1.06
same,biofilm OD600,[1],1.14
same,biofilm OD600,[7],1.01
same,biofilm OD600,[2],0.966
same,biofilm OD600,[3],0.955 ± 0.017
same,biofilm OD600,[4],0.838 ± 0.019
same,biofilm OD600,[8],0.893
same,biofilm OD600,[9],0.744
O=C([O-])C(O)[C@H](O)[C@@H](O)[C@H](O)[C@H](O)CO.O=C([O-])C(O)[C@H](O)[C@@H](O)[C@H](O)[C@H](O)CO.[Ca+2] (some centres undefined) [calcium gluceptate],biofilm OD600,[5],0.996
same,biofilm OD600,[6],1.09
same,biofilm OD600,[1],0.997
same,biofilm OD600,[7],1.02
same,biofilm OD600,[2],0.955
same,biofilm OD600,[3],0.941 ± 0.037
same,biofilm OD600,[4],0.955 ± 0.022
same,biofilm OD600,[8],1.02
same,biofilm OD600,[9],0.823
N[C@@H](C(=O)N[C@@H]1C(=O)N2C(C(=O)O)=C(Cl)CS[C@H]12)c1ccccc1 [cefaclor],biofilm OD600,[1],1.07
same,biofilm OD600,[2],0.896
same,biofilm OD600,[3],1.03 ± 0.028
same,biofilm OD600,[4],0.983 ± 0.032
Oc1c(Cl)cc(Cl)c2cccnc12 [chloroxine],biofilm OD600,[5],1.03
same,biofilm OD600,[6],1.03
same,biofilm OD600,[1],0.788
same,biofilm OD600,[7],0.926
same,biofilm OD600,[2],0.373
same,biofilm OD600,[3],0.907 ± 0.031
same,biofilm OD600,[4],0.28 ± 0.019
same,biofilm OD600,[8],0.333
same,biofilm OD600,[9],0.268
CN(C)CCC(c1ccc(Cl)cc1)c1ccccn1 (centres undefined) [chlorpheniramine maleate],biofilm OD600,[1],1.02
same,biofilm OD600,[2],0.894
same,biofilm OD600,[3],1 ± 0.044
same,biofilm OD600,[4],1.01 ± 0.026
N[C@H](Cc1ccccc1)C(=O)O [d-phenylalanine],biofilm OD600,[1],1
same,biofilm OD600,[2],1.01
same,biofilm OD600,[3],0.973 ± 0.034
same,biofilm OD600,[4],0.994 ± 0.06
CCCCCCOC(=O)NC(=N)c1ccc(NCc2nc3cc(C(=O)N(CCC(=O)OCC)c4ccccn4)ccc3n2C)cc1 [dabigatran etexilate mesylate],biofilm OD600,[5],0.9
same,biofilm OD600,[6],0.9
same,biofilm OD600,[1],1.05
same,biofilm OD600,[7],0.92
same,biofilm OD600,[2],0.776
same,biofilm OD600,[3],0.971 ± 0.031
same,biofilm OD600,[4],0.894 ± 0.046
same,biofilm OD600,[8],0.843
same,biofilm OD600,[9],0.628
NC(=O)C(c1ccccc1)(c1ccccc1)[C@@H]1CCN(CCc2ccc3c(c2)CCO3)C1 [darifenacin hydrobromide],biofilm OD600,[1],1.04
same,biofilm OD600,[2],0.916
same,biofilm OD600,[3],1 ± 0.018
same,biofilm OD600,[4],1.05 ± 0.046
Cc1c(OCC(F)(F)F)ccnc1C[S@@+]([O-])c1nc2ccccc2[nH]1 [dexlansoprazole],biofilm OD600,[5],0.981
same,biofilm OD600,[6],0.887
same,biofilm OD600,[1],0.925
same,biofilm OD600,[7],0.833
same,biofilm OD600,[2],0.837
same,biofilm OD600,[3],1.01 ± 0.024
same,biofilm OD600,[4],0.7 ± 0.091
same,biofilm OD600,[8],0.643
same,biofilm OD600,[9],0.625
COc1ccc(-c2cc(=O)c3c(O)cc(O[C@@H]4O[C@H](CO[C@@H]5O[C@@H](C)[C@H](O)[C@@H](O)[C@H]5O)[C@@H](O)[C@H](O)[C@H]4O)cc3o2)cc1O [diosmin],biofilm OD600,[1],1
same,biofilm OD600,[2],0.962
same,biofilm OD600,[3],1.09 ± 0.14
same,biofilm OD600,[4],1.07 ± 0.059
CCN(CC)C(=S)SSC(=S)N(CC)CC [disulfiram],biofilm OD600,[5],0.958
same,biofilm OD600,[6],1
same,biofilm OD600,[1],0.991
same,biofilm OD600,[7],1
same,biofilm OD600,[2],0.857
same,biofilm OD600,[3],0.999 ± 0.012
same,biofilm OD600,[4],0.76 ± 0.084
same,biofilm OD600,[8],0.764
same,biofilm OD600,[9],0.417
Cn1c(=O)c2c(ncn2CC(O)CO)n(C)c1=O (centres undefined) [dyphylline],biofilm OD600,[1],0.909
same,biofilm OD600,[2],0.872
same,biofilm OD600,[3],1.02 ± 0.046
same,biofilm OD600,[4],1.02 ± 0.047
CN1CCC[C@@H]1Cc1c[nH]c2ccc(CCS(=O)(=O)c3ccccc3)cc12 [eletriptan hydrobromide],biofilm OD600,[1],0.99
same,biofilm OD600,[2],0.945
same,biofilm OD600,[3],1.014 ± 0.0095
same,biofilm OD600,[4],1 ± 0.026
CC[C@H]1OC(=O)[C@H](C)[C@@H](O[C@H]2C[C@@](C)(OC)[C@@H](O)[C@H](C)O2)[C@H](C)[C@@H](O[C@@H]2O[C@H](C)C[C@H](N(C)C)[C@H]2O)[C@](C)(O)C[C@@H](C)C(=O)[C@H](C)[C@@H](O)[C@]1(C)O [erythromycin],biofilm OD600,[1],0.879
same,biofilm OD600,[2],0.874
same,biofilm OD600,[3],1.03 ± 0.026
same,biofilm OD600,[4],1.03 ± 0.017
CCC(=O)Oc1ccc2c(c1)CC[C@@H]1[C@@H]2CC[C@]2(C)[C@@H](OC(=O)CC)CC[C@@H]12 [estradiol dipropionate],biofilm OD600,[1],0.958
same,biofilm OD600,[2],0.844
same,biofilm OD600,[3],0.954 ± 0.037
same,biofilm OD600,[4],0.987 ± 0.012
O=c1[nH]c(=O)n([C@H]2C[C@H](O)[C@@H](CO)O2)cc1F [floxuridine],biofilm OD600,[1],1.02
same,biofilm OD600,[2],0.967
same,biofilm OD600,[3],0.969 ± 0.017
same,biofilm OD600,[4],0.927 ± 0.025
Nc1nc(=O)[nH]cc1F [flucytosine],biofilm OD600,[5],0.866
same,biofilm OD600,[6],0.873
same,biofilm OD600,[1],0.907
same,biofilm OD600,[7],0.862
same,biofilm OD600,[2],0.776
same,biofilm OD600,[3],0.983 ± 0.06
same,biofilm OD600,[4],0.798 ± 0.066
same,biofilm OD600,[8],0.758
same,biofilm OD600,[9],0.719
